Source: patent US20250382344A1, “Soluble GLP1/GIP/NPY2 Receptor Triple Agonists” (Boehringer Ingelheim International GmH, priority 2024, published 2025)
Like-named read-outs stand apart in the source and are kept apart here.

How the values were obtained:
[1] = biological target: T1, hGLP1R (Homo sapiens, UniProt P43220); experiment: hGLP1R CreLuc assay in 0.5% and 100% plasma (HEK-293 CRE-luciferase reporter cells); format: cell-based; details: HEK-293 reporter cells
T1 construct: expressed in transfected cells; host or cells: HEK-293 CRE-luciferase reporter cells
T1 sequence (P43220 24-463): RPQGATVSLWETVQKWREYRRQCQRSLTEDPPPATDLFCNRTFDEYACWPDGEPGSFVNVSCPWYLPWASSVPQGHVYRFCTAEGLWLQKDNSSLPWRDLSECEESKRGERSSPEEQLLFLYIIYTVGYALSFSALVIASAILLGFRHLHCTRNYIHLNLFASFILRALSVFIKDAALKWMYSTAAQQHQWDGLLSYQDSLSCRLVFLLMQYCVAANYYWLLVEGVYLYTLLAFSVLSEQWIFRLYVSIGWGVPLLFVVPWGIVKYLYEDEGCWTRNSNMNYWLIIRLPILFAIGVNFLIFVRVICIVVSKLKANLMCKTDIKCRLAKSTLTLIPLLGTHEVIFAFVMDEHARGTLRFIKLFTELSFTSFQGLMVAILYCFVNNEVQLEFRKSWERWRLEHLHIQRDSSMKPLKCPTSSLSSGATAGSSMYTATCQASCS

[2] = Solubility in 0.1 M phosphate buffer at pH 7; format: physicochemical; details: 0.1 M phosphate buffer at pH 7, 10 mg/mL final peptide concentration, shaking 2 hours at room temperature, peptides as TFA-salts; measured sample pH 6.5-7.0
[3] = tested on: Normal NMRI Mice; experiment: Effect on acute food intake in normal NMRI mice; format: in vivo; details: male NMRI mice, single subcutaneous dose 100 nmol/kg, 24 hours food intake normalized to vehicle group
Method: Male NMRI mice were obtained from Janvier (Janvier Labs, France) or from Charles River (Charles River Research Models & Services Germany GmbH) at the age of 3 weeks. The animals get a microchip (Datamars, Slim Microchip T-SL) for individual identification after delivery. They were housed with 4 mice per cage under a 12/12 dark-light cycle, light off at 3 p.m. Room temperature was controlled to 21° C.+/−1° C. and humidity 60%+/−20%. Mice had ad libitum access to regular rodent chow (KLIBA Nafag 3040 or Altromin 1324, Brogaarden, Denmark) and tap water.
Latest transfer into the HM2-System of MBRose, Denmark (real-time monitoring system of food- and water intake) of the animals 5 days before study start, to allow acclimatization to experimental conditions. As the animals were uniquely identified with the microchips, each individual animal was identified by its own microchip upon entry and exit from the food channel via antennae. Randomization of the mice for each study group (n=8; age earliest 6 weeks old) was based on food intake (middle of last three days 24 h-interval) and bodyweight directly before start of the study. A vehicle treated (50 mM phosphate buffer pH 7.4 with 3.5% mannitol) group was included in each experiment. To have the same nutrition standard for each animal the food access was locked eight hours before dark phase. One hour before night, the animals were once treated subcutaneously with the test peptide. Food intake was reported hourly for a period of 24 hours.

[4] = biological target: T2, hGIPR (Homo sapiens, UniProt P48546); experiment: hGIPR CreLuc assay in 0.5% and 100% plasma (CHO CRE-luciferase reporter cells); format: cell-based
T2 construct: expressed in transfected cells; host or cells: CHO CRE-luciferase reporter cells
T2 sequence (P48546 22-466): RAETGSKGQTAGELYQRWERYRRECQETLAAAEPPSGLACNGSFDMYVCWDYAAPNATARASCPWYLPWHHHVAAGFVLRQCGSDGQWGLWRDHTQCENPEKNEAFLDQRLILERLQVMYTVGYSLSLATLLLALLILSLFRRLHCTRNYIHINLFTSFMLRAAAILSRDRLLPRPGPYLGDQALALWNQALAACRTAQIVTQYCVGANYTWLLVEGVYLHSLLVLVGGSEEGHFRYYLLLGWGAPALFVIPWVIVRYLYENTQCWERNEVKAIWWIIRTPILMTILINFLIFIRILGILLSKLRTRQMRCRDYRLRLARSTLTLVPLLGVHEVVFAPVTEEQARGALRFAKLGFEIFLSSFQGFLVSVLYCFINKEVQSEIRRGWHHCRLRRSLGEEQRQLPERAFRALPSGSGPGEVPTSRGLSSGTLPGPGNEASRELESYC

[5] = Mouse PK after intravenous application; format: in vivo; details: plasma, male NMRI mice, intravenous 30-60 nmol/kg, non-compartmental analysis
Procedure, shortened: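 Male NMRI mice (30–40 g) dosed 30-60 nmol/kg by tail vein in 50 mM phosphate buffer pH 7.4/3.5% mannitol. Saphenous EDTA blood sampled from conscious animals up to 56 h; plasma peptide quantified by LC-MS. Parameters from non-compartmental analysis of individual profiles.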

[6] = 0.5% human plasma, read-out: hGLP1R 0.5% hP
[7] = 0.5% human plasma, read-out: hGIPR 0.5% hP
[8] = 100% human plasma, read-out: hGLP1R 100% hP
[9] = 100% human plasma, read-out: hGIPR 100% hP

| EC50 [1, 6] [pM] | solubility at 2 h [2] [µg/mL] | EC50 [4, 7] [pM] | EC50 [1, 8] [pM] | MRT [5] [h] | EC50 [4, 9] [pM] | Compound | Acute Food Intake 24 hours 100 nmol/kg [% CTL] [3] [% CTL] |
| --- | --- | --- | --- | --- | --- | --- | --- |
| 200 | 10300 | 100 |  |  |  | CC[C@H](C)[C@H](NC(=O)[C@H](CC(C)C)NC(=O)[C@H](Cc1c[nH]cn1)NC(=O)[C@H](CCCNC(=N)N)NC(=O)[C@@H](NC(=O)[C@H](Cc1ccccc1)NC(=O)[C@H](C)NC(=O)C(C)(C)NC(=O)[C@H](CCC(N)=O)NC(=O)[C@H](C)NC(=O)[C@H](CCC(N)=O)NC(=O)[C@H](CCCCN)NC(=O)[C@H](CCC(=O)O)NC(=O)[C@H](CC(C)C)NC(=O)[C@](C)(CC(C)C)NC(=O)[C@@H](NC(=O)[C@H](CO)NC(=O)[C@H](Cc1ccc(O)cc1)NC(=O)[C@H](CC(=O)O)NC(=O)[C@H](CO)NC(=O)[C@@H](NC(=O)[C@H](Cc1ccccc1)NC(=O)[C@@H](NC(=O)CNC(=O)[C@H](CCC(=O)O)NC(=O)C(C)(C)NC(=O)[C@@H](N)Cc1ccc(O)cc1)[C@@H](C)O)[C@@H](C)O)[C@@H](C)CC)C(C)C)C(=O)N[C@@H](CC(N)=O)C(=O)N[C@@H](CCCCNC(=O)[C@@H](N)CCCCNC(=O)CC[C@H](NC(=O)CC[C@H](NC(=O)CC[C@H](NC(=O)CC[C@H](NC(=O)CC[C@H](NC(=O)CC[C@H](NC(=O)CC[C@H](NC(=O)CCCCCCCCCCCCCCCCCCC(=O)O)C(=O)O)C(=O)O)C(=O)O)C(=O)O)C(=O)O)C(=O)O)C(=O)O)C(=O)NC(C)(C)C(=O)N[C@H](C(=O)N[C@@H](CCCNC(=N)N)C(=O)N[C@@H](CCC(N)=O)C(=O)N[C@@H](CCCNC(=N)N)C(=O)N[C@@H](Cc1ccc(O)cc1)C(N)=O)[C@@H](C)O [Compound 78, Y-Aib-E-G-T-F-T-S-D-Y-S-I-aMeL-L-E-K-Q-A-Q-Aib-A-F-V-R-H-L-I-N-K(1,3)-Aib-T-R-Q-R-Y-NH2.C20DA-gGlu-gGlu-gGlu-gGlu-gGlu-gGlu-gGlu-eLys(1,2)] | 65 |
| 3000 | 6900 | 700 | 13900 | 17.2 |  | CC[C@H](C)[C@H](NC(=O)[C@H](CC(C)C)NC(=O)[C@H](Cc1c[nH]cn1)NC(=O)[C@H](CCCNC(=N)N)NC(=O)[C@@H](NC(=O)[C@H](Cc1ccccc1)NC(=O)[C@H](C)NC(=O)C(C)(C)NC(=O)[C@H](CCC(N)=O)NC(=O)[C@H](C)NC(=O)[C@H](CCC(N)=O)NC(=O)[C@H](CCCCN)NC(=O)[C@H](CCC(=O)O)NC(=O)[C@H](CC(C)C)NC(=O)C(C)(C)NC(=O)[C@@H](NC(=O)[C@H](CO)NC(=O)[C@H](Cc1ccc(O)cc1)NC(=O)[C@H](CC(=O)O)NC(=O)[C@H](CO)NC(=O)[C@@H](NC(=O)[C@H](Cc1ccccc1)NC(=O)[C@@H](NC(=O)CNC(=O)[C@H](CCC(=O)O)NC(=O)C(C)(C)NC(=O)[C@@H](N)Cc1ccc(O)cc1)[C@@H](C)O)[C@@H](C)O)[C@@H](C)CC)C(C)C)C(=O)N[C@@H](CC(N)=O)C(=O)N[C@@H](CCCCNC(=O)CC[C@H](NC(=O)CC[C@H](NC(=O)CC[C@H](NC(=O)CC[C@H](NC(=O)CC[C@H](NC(=O)CC[C@H](NC(=O)CCCCCCCCCCCCCCCCCCC(=O)O)C(=O)O)C(=O)O)C(=O)O)C(=O)O)C(=O)O)C(=O)O)C(=O)NC(C)(C)C(=O)N[C@H](C(=O)N[C@@H](CCCNC(=N)N)C(=O)N[C@@H](CCC(N)=O)C(=O)N[C@@H](CCCNC(=N)N)C(=O)N[C@@H](Cc1ccc(O)cc1)C(N)=O)[C@@H](C)O [Compound 3, Y-Aib-E-G-T-F-T-S-D-Y-S-I-Aib-L-E-K-Q-A-Q-Aib-A-F-V-R-H-L-I-N-K(1,3)-Aib-T-R-Q-R-Y-NH2.C20DA-gGlu-gGlu-gGlu-gGlu-gGlu-gGlu(1,2)] | 74 |
| 100 | 9000 | 100 | 400 | 9.6 | 800 | CC[C@H](C)[C@H](NC(=O)[C@H](CC(C)C)NC(=O)[C@H](Cc1c[nH]cn1)NC(=O)[C@H](CCCNC(=N)N)NC(=O)[C@@H](NC(=O)[C@H](Cc1ccccc1)NC(=O)[C@H](C)NC(=O)C(C)(C)NC(=O)[C@H](CCC(N)=O)NC(=O)[C@H](C)NC(=O)[C@H](CCC(N)=O)NC(=O)[C@H](CCCCN)NC(=O)[C@H](CCC(=O)O)NC(=O)[C@H](CC(C)C)NC(=O)[C@](C)(CC(C)C)NC(=O)[C@@H](NC(=O)[C@H](CO)NC(=O)[C@H](Cc1ccc(O)cc1)NC(=O)[C@H](CC(=O)O)NC(=O)[C@H](CO)NC(=O)[C@@H](NC(=O)[C@H](Cc1ccccc1)NC(=O)[C@@H](NC(=O)CNC(=O)[C@H](CCC(=O)O)NC(=O)C(C)(C)NC(=O)[C@@H](N)Cc1ccc(O)cc1)[C@@H](C)O)[C@@H](C)O)[C@@H](C)CC)C(C)C)C(=O)N[C@@H](CC(N)=O)C(=O)N[C@@H](CCCCNC(=O)[C@@H](N)CCCCNC(=O)CC[C@H](NC(=O)CC[C@H](NC(=O)CC[C@H](NC(=O)CC[C@H](NC(=O)CC[C@H](NC(=O)CC[C@H](NC(=O)CCCCCCCCCCCCCCCCC(=O)O)C(=O)O)C(=O)O)C(=O)O)C(=O)O)C(=O)O)C(=O)O)C(=O)NC(C)(C)C(=O)N[C@H](C(=O)N[C@@H](CCCNC(=N)N)C(=O)N[C@@H](CCC(N)=O)C(=O)N[C@@H](CCCNC(=N)N)C(=O)N[C@@H](Cc1ccc(O)cc1)C(N)=O)[C@@H](C)O [Compound 119, Y-Aib-E-G-T-F-T-S-D-Y-S-I-aMeL-L-E-K-Q-A-Q-Aib-A-F-V-R-H-L-I-N-K(1,3)-Aib-T-R-Q-R-Y-NH2.C18DA-gGlu-gGlu-gGlu-gGlu-gGlu-gGlu-eLys(1,2)] | 34 |
| 200 | 10400 | 100 | 1800 |  | 1700 | CC[C@H](C)[C@H](NC(=O)[C@H](Cc1ccccc1)NC(=O)[C@H](C)NC(=O)C(C)(C)NC(=O)[C@H](CCC(N)=O)NC(=O)[C@H](C)NC(=O)[C@H](CCC(N)=O)NC(=O)[C@H](CCCCN)NC(=O)[C@H](CCC(=O)O)NC(=O)[C@H](CC(C)C)NC(=O)C(C)(C)NC(=O)[C@@H](NC(=O)[C@H](CO)NC(=O)[C@H](Cc1ccc(O)cc1)NC(=O)[C@H](CC(=O)O)NC(=O)[C@H](CO)NC(=O)[C@@H](NC(=O)[C@H](Cc1ccccc1)NC(=O)[C@@H](NC(=O)CNC(=O)[C@H](CCC(=O)O)NC(=O)C(C)(C)NC(=O)[C@@H](N)Cc1ccc(O)cc1)[C@@H](C)O)[C@@H](C)O)[C@@H](C)CC)C(=O)N[C@@H](CCCNC(=N)N)C(=O)N[C@@H](Cc1c[nH]cn1)C(=O)N[C@@H](CC(C)C)C(=O)N[C@H](C(=O)N[C@@H](CC(N)=O)C(=O)N[C@@H](CCCCNC(=O)[C@@H](N)CCCCNC(=O)CC[C@H](NC(=O)CC[C@H](NC(=O)CC[C@H](NC(=O)CC[C@H](NC(=O)CC[C@H](NC(=O)CC[C@H](NC(=O)CCCCCCCCCCCCCCCCC(=O)O)C(=O)O)C(=O)O)C(=O)O)C(=O)O)C(=O)O)C(=O)O)C(=O)NC(C)(C)C(=O)N[C@H](C(=O)N[C@@H](CCCNC(=N)N)C(=O)N[C@@H](CCC(N)=O)C(=O)N[C@@H](CCCNC(=N)N)C(=O)N[C@@H](Cc1ccc(O)cc1)C(N)=O)[C@@H](C)O)[C@@H](C)CC [Compound 88, Y-Aib-E-G-T-F-T-S-D-Y-S-I-Aib-L-E-K-Q-A-Q-Aib-A-F-I-R-H-L-I-N-K(1,3)-Aib-T-R-Q-R-Y-NH2.C18DA-gGlu-gGlu-gGlu-gGlu-gGlu-gGlu-eLys(1,2)] | 47 |
